Values belong to the compound of their own block, whether it stands above or below them.
Assay: solvent given as SMILES

fluorescence lifetime (in CC#N): 0.08 ns
Structure (SMILES): O=c1oc2ccccc2cc1/C=C/c1ccc([N+](=O)[O-])cc1

fluorescence lifetime (in C1CCCCC1): 2 ns
Structure (SMILES): CN(C)c1ccc2nc(-c3ccc(/C=N/Nc4ccccc4)cc3)sc2c1

fluorescence lifetime (in CC#N): 0.0004 ns
Structure (SMILES): O=c1[nH]cc(F)c(=O)[nH]1

fluorescence lifetime (in CCCCCC): 5.44 ns | fluorescence lifetime (in CCCCCCCCO): 5.07 ns | fluorescence lifetime (in CCOC(C)=O): 5.32 ns | fluorescence lifetime (in CN(C)C=O): 4.92 ns
Structure (SMILES): CC1=CC(C)=[N+]2C1=Cc1c3ccccc3c(C#Cc3ccc(F)cc3)n1[B-]2(F)F

Structure (SMILES): COc1ccc(C2=CC(c3ccc4cc(N(C)C)ccc4c3)=[O+][B-](F)(F)O2)cc1
fluorescence lifetime (in C1CCOC1): 2.68 ns | fluorescence lifetime (in CC#N): 0.42 ns | fluorescence lifetime (in CC(C)=O): 0.72 ns | fluorescence lifetime (in CS(C)=O): 0.54 ns | fluorescence lifetime (in Cc1ccccc1): 2.96 ns | fluorescence lifetime (in ClC(Cl)Cl): 3.54 ns | fluorescence lifetime (in ClCCl): 2.71 ns

Structure (SMILES): COC(=O)/C(C#N)=c1\s/c(=c2/s/c(=C(/C#N)C(=O)OC)c3cc(-c4ccccc4)sc23)c2sc(-c3ccccc3)cc12
fluorescence lifetime (in Cc1ccccc1): 2.82 ns

fluorescence lifetime (in ClC(Cl)Cl): 1.5 ns
Structure (SMILES): COc1ccc(-c2oc3cccc4c5c(-c6ccc(OC)cc6)c(=N)oc6cccc(c2c34)c65)cc1

Structure (SMILES): N#Cc1ccc(/C=C/c2c3ccccc3cc3ccccc23)cc1
fluorescence lifetime (in C1CCOC1): 0.82 ns | fluorescence lifetime (in CC1CCCCC1): 3.01 ns | fluorescence lifetime (in CC#N): 0.68 ns | fluorescence lifetime (in CO): 0.6 ns | fluorescence lifetime (in Cc1ccccc1): 2.12 ns | fluorescence lifetime (in ClC(Cl)Cl): 0.82 ns

fluorescence lifetime (in CC#N): 3.5 ns | fluorescence lifetime (in CCO): 3.24 ns | fluorescence lifetime (in O): 3.28 ns
Structure (SMILES): CC(=O)OC[C@@H]1O[C@H](n2cnc3c2N=CN2Cc4c[n+](C)c(C)nc4N=C32)[C@@H](O)[C@H]1O

fluorescence lifetime (in ClCCl): 1.64 ns
Structure (SMILES): CCCCn1c(-c2ccc(-c3nnc(-c4ccc(-c5nc6c7ccccc7c7ccccc7c6n5CCCC)cc4)o3)cc2)nc2c3ccccc3c3ccccc3c21

Structure (SMILES): CN(C)c1ccccc1
fluorescence lifetime (in C1CCCCC1): 3 ns

fluorescence lifetime (in CC#N): 5.59 ns | fluorescence lifetime (in ClCCl): 5.33 ns
Structure (SMILES): CCOC(=O)c1ccc2nc(/N=N/c3ccc(N(CC)CC)cc3)sc2c1

Structure (SMILES): N#Cc1c(-c2ccc(N(c3ccccc3)c3ccccc3)cc2)c(C#N)c(-c2ccc(N(c3ccccc3)c3ccccc3)cc2)c(C#N)c1-c1ccc(N(c2ccccc2)c2ccccc2)cc1
fluorescence lifetime (in O=P(c1ccccc1)(c1ccccc1)c1ccccc1Oc1ccccc1P(=O)(c1ccccc1)c1ccccc1): 6.21 ns

fluorescence lifetime (in CCCCCC): 66.9 ns | fluorescence lifetime (in CO): 175 ns | fluorescence lifetime (in ClCCl): 94.2 ns
Structure (SMILES): C[Si](C)(C)c1ccc2ccc3cccc4ccc1c2c34

Structure (SMILES): COc1cc(N(c2ccc(C=C(C#N)C#N)c(OC)c2)c2ccc(C=C(C#N)C#N)c(OC)c2)ccc1C=C(C#N)C#N
fluorescence lifetime (in C1COCCO1): 0.65 ns | fluorescence lifetime (in CC#N): 0.14 ns | fluorescence lifetime (in CC(C)=O): 0.17 ns | fluorescence lifetime (in CCOC(C)=O): 0.32 ns | fluorescence lifetime (in CN(C)C=O): 0.06 ns | fluorescence lifetime (in CO): 0.12 ns | fluorescence lifetime (in Cc1ccccc1): 0.03 ns | fluorescence lifetime (in ClC(Cl)Cl): 0.14 ns | fluorescence lifetime (in ClCCl): 0.09 ns

fluorescence lifetime (in ClCCl): 4.2 ns
Structure (SMILES): CC(C)(C)c1ccc2c(c1)c1cc(C(C)(C)C)ccc1n2-c1ccc(C#Cc2ccc(C=C(C#N)C#N)cc2)cc1

fluorescence lifetime (in C1CCCCC1): 0.67 ns
Structure (SMILES): COC(=O)c1nc(Cl)c(-c2ccccc2)o1

fluorescence lifetime (in CO): 1.69 ns
Structure (SMILES): C/C(=N\Nc1ccc(C#N)cc1)c1ccccn1

fluorescence lifetime (in ClC(Cl)Cl): 0.564 ns
Structure (SMILES): CCCCCCN1C(=O)c2cccc3c(-c4ccc(-c5cccs5)s4)ccc(c23)C1=O

Structure (SMILES): CCC1=C(C)C2=Cc3c(I)c(I)cn3[B-](F)(F)[N+]2=C1C
fluorescence lifetime (in C1CCCCC1): 0.212 ns | fluorescence lifetime (in CC(C)=O): 0.097 ns | fluorescence lifetime (in CCO): 0.09 ns | fluorescence lifetime (in CCOC(C)=O): 0.116 ns | fluorescence lifetime (in CO): 0.087 ns | fluorescence lifetime (in OCC(F)(F)F): 0.11 ns

Structure (SMILES): CCOC(=O)CN1C(=O)C2=C(c3ccc(N4CCCCC4)cc3)N(CC(=O)OCC)C(=O)C2=C1c1ccc(C#N)cc1
fluorescence lifetime (in CC#N): 3.57 ns | fluorescence lifetime (in CS(C)=O): 3.72 ns | fluorescence lifetime (in Cc1ccccc1): 4.41 ns

Structure (SMILES): CCCCCCN(CCCCCC)c1ccc(C#Cc2ccc(-c3ccc(C#Cc4ccc(N(CCCCCC)CCCCCC)cc4)cc3)cc2)cc1
fluorescence lifetime (in Cc1ccccc1): 1 ns

fluorescence lifetime (in CC#N): 0.51 ns
Structure (SMILES): c1cc2c3c(cccc3c1)C(N1CCOCCOCCN(C3=Nc4cccc5cccc3c45)CCOCC1)=N2

fluorescence lifetime (in ClC(Cl)Cl): 0.93 ns
Structure (SMILES): CC1=CC(C)=[N+]2C1=C(c1ccc(I)cc1)c1c(C)cc(C)n1[B-]21OCCO1

fluorescence lifetime (in CC#N): 2.9 ns
Structure (SMILES): COc1ccc(-c2nc(/C(C#N)=C/c3ccc(C#N)cc3)sc2-c2ccc(OC)cc2)cc1

fluorescence lifetime (in ClC(Cl)Cl): 2.8 ns
Structure (SMILES): CN(C)c1ccc(C2=Cc3ccc4ccccc4[n+]3[B-](F)(F)O2)cc1

fluorescence lifetime (in C1CCOC1): 1.01 ns
Structure (SMILES): COc1cc2c(cc1-c1ccc(N(C)C)cc1)Cc1c3c(c4c(c1-2)-c1cc(OC)c(-c2ccc(N(C)C)cc2)cc1C4)C(=O)N(CCC(C)C)C3=O

fluorescence lifetime (in CO): 1.27 ns
Structure (SMILES): C/C(=N\Nc1ccc(C#N)cc1)c1cccc(/C(C)=N/Nc2ccc(C#N)cc2)c1

fluorescence lifetime (in CC#N): 22.4 ns
Structure (SMILES): COC(=O)CC1(C(=O)OC)Oc2c(c(C(C)=O)c3c(c2C(C)=O)OCO3)O1

fluorescence lifetime (in ClCCl): 1.2 ns
Structure (SMILES): c1ccc(N(c2ccccc2)c2ccc(-c3ccc4c(c3)C3(c5ccccc5Oc5ccccc53)c3cc(-c5ccc(N(c6ccccc6)c6ccccc6)cc5)ccc3-4)cc2)cc1

— the Deep4Chem optical property database
